Results taken from ChEMBL document CHEMBL5120980, “Stereoisomers of an Aryl Pyrazole Glucocorticoid Receptor Agonist Scaffold Elicit Differing Anti-inflammatory Responses” (ACS Med Chem Lett, 2022).

What was measured:
[1] = target: T1, Glucocorticoid receptor (Rattus norvegicus, UniProt P06536); assay: Agonist activity at glucocorticoid receptor in rat INS-1 832/13 cells transfected with CCL2-promoter luciferase plasmid construct assessed as reduction in IL-1 beta induced inflammation by luciferase reporter gene assay; format: cell-based
T1 sequence (P06536 whole entry): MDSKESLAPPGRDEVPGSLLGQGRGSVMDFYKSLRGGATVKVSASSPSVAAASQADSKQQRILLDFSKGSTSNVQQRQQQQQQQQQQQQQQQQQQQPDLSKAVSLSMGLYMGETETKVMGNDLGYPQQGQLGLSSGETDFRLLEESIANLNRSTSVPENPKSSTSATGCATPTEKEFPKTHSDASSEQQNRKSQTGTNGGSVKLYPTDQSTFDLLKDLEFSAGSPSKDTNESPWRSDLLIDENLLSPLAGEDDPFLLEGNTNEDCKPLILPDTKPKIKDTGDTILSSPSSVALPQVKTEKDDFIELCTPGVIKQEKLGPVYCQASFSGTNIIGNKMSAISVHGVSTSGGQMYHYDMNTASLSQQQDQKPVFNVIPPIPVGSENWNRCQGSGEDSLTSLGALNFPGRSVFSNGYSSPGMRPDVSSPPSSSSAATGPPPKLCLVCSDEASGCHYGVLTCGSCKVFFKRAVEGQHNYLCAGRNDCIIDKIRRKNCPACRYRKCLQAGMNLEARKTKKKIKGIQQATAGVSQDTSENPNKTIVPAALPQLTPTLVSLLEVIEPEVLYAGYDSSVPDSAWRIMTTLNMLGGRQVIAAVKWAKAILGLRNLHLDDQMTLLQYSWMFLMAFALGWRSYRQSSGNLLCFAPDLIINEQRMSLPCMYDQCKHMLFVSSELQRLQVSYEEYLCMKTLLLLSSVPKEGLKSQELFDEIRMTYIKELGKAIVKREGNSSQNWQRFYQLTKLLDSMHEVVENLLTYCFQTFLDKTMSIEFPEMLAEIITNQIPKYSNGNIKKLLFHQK

[2] = target: T1, Glucocorticoid receptor; assay: Agonist activity at glucocorticoid receptor in rat INS-1 832/13 cells transfected with 3XGRE-promoter luciferase plasmid construct assessed as induction of receptor transactivation by luciferase reporter gene assay; format: cell-based

IC50 [1] | EC50 [2] | SMILES
63.1 nM | 2510 nM | C[C@H](O)[C@H]1CCCC2=Cc3c(cnn3-c3ccc(F)cc3)C[C@@]21C
398 nM | 3160 nM | C[C@]12Cc3cnn(-c4ccc(F)cc4)c3C=C1CCC[C@@H]2[C@@H](O)C1CCCC1
2000 nM | 0.501 nM | C[C@]12Cc3cnn(-c4ccc(F)cc4)c3C=C1CCC[C@@H]2[C@H](O)C1CC1
0.631 nM | 1580 nM | CC(C)[C@H](O)[C@H]1CCCC2=Cc3c(cnn3-c3ccc(F)cc3)C[C@@]21C
25.1 nM | 2000 nM | C[C@]12Cc3cnn(-c4ccc(F)cc4)c3C=C1CCC[C@@H]2[C@H](O)c1c(F)c(F)c(F)c(F)c1F
3980 nM | 25.1 nM | C[C@]12Cc3cnn(-c4ccc(F)cc4)c3C=C1CCC[C@@H]2[C@H](O)c1ccccc1
31.6 nM | 251 nM | C[C@]12Cc3cnn(-c4ccc(F)cc4)c3C=C1CCC[C@@H]2[C@@H](O)c1c(F)c(F)c(F)c(F)c1F
0.316 nM | 31.6 nM | C[C@@H](O)[C@H]1CCCC2=Cc3c(cnn3-c3ccc(F)cc3)C[C@@]21C
20 nM | 10000 nM | CC[C@H](O)[C@H]1CCCC2=Cc3c(cnn3-c3ccc(F)cc3)C[C@@]21C
158 nM | 1580 nM | CC(C)[C@@H](O)[C@H]1CCCC2=Cc3c(cnn3-c3ccc(F)cc3)C[C@@]21C
5.01 nM | 31.6 nM | C[C@]12Cc3cnn(-c4ccc(F)cc4)c3C=C1CCC[C@@H]2CO
15.8 nM | 2510 nM | CC[C@@H](O)[C@H]1CCCC2=Cc3c(cnn3-c3ccc(F)cc3)C[C@@]21C
31.6 nM | 1000 nM | C[C@]12Cc3cnn(-c4ccc(F)cc4)c3C=C1CCC[C@@H]2[C@@H](O)C1CC1
20 nM | 63.1 nM | C[C@]12Cc3cnn(-c4ccc(F)cc4)c3C=C1CCC[C@@H]2[C@@H](O)c1ccccc1
